Source: PubChem BioAssay (NCI)
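Test compounds were applied to cells in 96-well plates for 48 hours at 5 doses. At the TGI there is no net growth.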

Assays:
Experiment in all cases: NCI tumour cell line growth inhibition, 48 h
SNB-78 CNS = test system: SNB-78 CNS
XF 498 CNS = test system: XF 498 CNS
KM20L2 colon = test system: KM20L2 colon
DMS 114 small cell lung = test system: DMS 114 small cell lung
HOP-18 NSCLC = test system: HOP-18 NSCLC
DLD-1 colon = test system: DLD-1 colon
RXF-631 renal = test system: RXF-631 renal

| SMILES | TGI (SNB-78 CNS) [µM] | TGI (XF 498 CNS) [µM] | TGI (KM20L2 colon) [µM] | TGI (DMS 114 small cell lung) [µM] | TGI (HOP-18 NSCLC) [µM] | TGI (DLD-1 colon) [µM] | TGI (RXF-631 renal) [µM] |
| --- | --- | --- | --- | --- | --- | --- | --- |
| C[s+]1c2ccccc2c2ccccc21 | > 100 | > 100 | > 100 | – | – | – | – |
| NC(=O)CCC(N=c1c2ccccc2n(O)c2ccccc12)C(=O)O (centres undefined) | > 100 | – | > 100 | > 100 | 98.4 | > 100 | – |
| Clc1ccc2c(NCCCCCCNc3ccnc4cc(Cl)ccc34)ccnc2c1 | 3.87 | 2.96 | 4.39 | 3.34 | – | 10.3 | 6.02 |
